# Tests used:
# [1] = molecular target: T1, human α1-β2-γ2L GABAA-receptor subtype (Homo sapiens, UniProt P14867+P47870); assay: Patch clamp (Dynaflow) GABA-mediated current response, HEK-293 cells, α1β2γ2L; type: cell-based; conditions: 1 μM steroid; essentially as in Example 2
# T1 construct: expressed in transfected cells
# From the text: (§1) In these tests the protocol was optimized to be like the physiological conditions in the synaptic cleft.
# (§2) Preparation of cell lines: HEK-293 cells permanently transfected with the human α1-β2-γ2L, α2-β3-γ2S, α3-ββ3-γ2L, α4-β3-δ or α5-β3-γ2L GABAA-receptor subtypes were used. The cell lines permanently expressing a functional human GABAA-receptor was made in following steps. The human GABAA-receptor subunits e.g. α1 (308-1727 NM_000806), β2 (214-1679 NM_000813), γ2L (290-1785 NM_198904), α2, β3, γ2S, α3, α4, δ and α5 including introduced Kozac sequences just before the start codons were subcloned into mammalian expression vectors containing Geneticin, Hygromycin B, and Zeocin resistance, respectively. A HEK-293 cell line stably expressing the three GABAA-receptor subunits was produced by transfection of the subunits, one at a time. The transfection was followed by selection with the appropriate antibiotics, cell separation with the use of subunit specific antibodies and production of single cell colonies. Produced cell lines were analysed with immunocytochemistry for the three GABAA-receptor subunits, followed by selection of a suitable cell line showing, for the GABAA-receptor normal and good reactivity in a patch-clamp analysis (see below) towards GABA and the GAMS THDOC.
# (§3) Cell culture: HEK-293 cells, permanently transfected with human α1-β2-γ2L, α2-β3-γ2S, α3-β3-γ2L, α4-β3-δ and α5-β3-γ2L GABAA-receptor subtypes, were seeded at a density of 3×10^4/25 cm^2 in cell binding culture flask. The transfected cells were used for patch-clamp experiments 3 days after seeding. When using the cells for patch-clamp experiments the cells were washed twice with oxygen-bubbled EC-solution (see below). About 5 mL EC was then added and the cells were kept in the incubator for about 15 minutes. After 15 minutes the cells came loose from the bottom of the flask and were separated by carefully sucking couple of times with a Pasteur pipette.
# (§4) Dynaflow™ system: Dynaflow™ system with resolve chips was used for all patch-clamp experiments. The resolve chips is made of non-sticky materials. The channel width is 150 μm and the height 50 μm. The well volume is 280 μL. Run time at the flow rate of 26 μL/min is […]. The pump settings were as follow: Omnifix 2 ml syringe with inner diameter of 9.65 mm was used. The syringe pump flow rate of chip was 26 μL/min.
# (§5) Steroids and GABA: GABA was dissolved in EC-solution by ultrasound for about 40 minutes to the concentration of 10 mM in room temperature. All steroids were dissolved to the concentration of 6 mM in dimethyl sulfoxide (DMSO). The DMSO concentration was 0.1% in all end-solutions, including the wash solution (EC) and the solution with GABA alone. End-solutions are the solutions added into the wells of the chip.
# Electrophysiology: Patch electrodes were pulled from 1.5 mm O.D., 0.86 mm I.D. borosilicate capillary glass without filament. […] The intracellular solution (IC) comprised of (in mM): 140 Cs-gluconate, 3.0 NaCl, 1.2 MgCl2, 1.0 EGTA, 10 HEPES. pH was adjusted to 7.2 with CsOH. The extracellular (EC) solution used during recordings contained (in mM): 137 NaCl, 5.0 KCl, 1.0 CaCl2), 1.2 MgCl2, 10 HEPES, 10 glucose. pH was adjusted with NaOH to 7.4. After compensating for the liquid junction potential, a steady holding potential of −17 mV was used in all experiments. In physiological conditions the HEK-293 has a resting potential at −40 mV and a low concentration of chloride ions inside the cell. […]
# [2] = molecular target: T2, human α3-β3-γ2L GABAA-receptor subtype (Homo sapiens, UniProt P28472+P34903); assay: Patch clamp (Dynaflow) GABA-mediated current response, HEK-293 cells, α3β3γ2L; type: cell-based; conditions: 1 μM steroid; essentially as in Example 2
# T2 construct: expressed in transfected cells
# T2 sequence (P34903 29-492): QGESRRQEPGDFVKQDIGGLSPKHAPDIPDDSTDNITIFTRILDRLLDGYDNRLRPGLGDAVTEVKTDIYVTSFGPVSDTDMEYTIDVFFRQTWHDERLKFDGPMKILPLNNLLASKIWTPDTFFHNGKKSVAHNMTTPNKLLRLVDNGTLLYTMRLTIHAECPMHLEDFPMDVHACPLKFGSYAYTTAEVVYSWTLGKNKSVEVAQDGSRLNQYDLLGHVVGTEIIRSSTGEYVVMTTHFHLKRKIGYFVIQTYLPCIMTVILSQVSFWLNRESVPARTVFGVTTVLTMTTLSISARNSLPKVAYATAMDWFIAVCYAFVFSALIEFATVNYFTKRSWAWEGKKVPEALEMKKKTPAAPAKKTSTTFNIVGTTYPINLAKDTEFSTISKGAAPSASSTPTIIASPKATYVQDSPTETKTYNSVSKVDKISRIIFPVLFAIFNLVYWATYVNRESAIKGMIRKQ
# T2 sequence (P28472 26-473): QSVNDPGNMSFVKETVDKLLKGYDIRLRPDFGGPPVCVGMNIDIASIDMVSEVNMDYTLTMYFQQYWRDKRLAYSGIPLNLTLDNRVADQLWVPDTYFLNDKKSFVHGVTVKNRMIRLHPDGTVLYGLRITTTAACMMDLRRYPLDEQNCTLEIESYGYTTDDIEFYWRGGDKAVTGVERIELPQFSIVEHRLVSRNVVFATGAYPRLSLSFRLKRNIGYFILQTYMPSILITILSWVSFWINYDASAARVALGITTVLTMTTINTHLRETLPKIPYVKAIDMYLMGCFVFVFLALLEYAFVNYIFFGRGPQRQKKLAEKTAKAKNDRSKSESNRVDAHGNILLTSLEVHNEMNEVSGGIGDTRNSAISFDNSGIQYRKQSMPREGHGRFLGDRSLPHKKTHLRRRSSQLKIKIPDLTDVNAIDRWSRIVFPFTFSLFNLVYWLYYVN
# T2 sequence (P18507 40-475 partner): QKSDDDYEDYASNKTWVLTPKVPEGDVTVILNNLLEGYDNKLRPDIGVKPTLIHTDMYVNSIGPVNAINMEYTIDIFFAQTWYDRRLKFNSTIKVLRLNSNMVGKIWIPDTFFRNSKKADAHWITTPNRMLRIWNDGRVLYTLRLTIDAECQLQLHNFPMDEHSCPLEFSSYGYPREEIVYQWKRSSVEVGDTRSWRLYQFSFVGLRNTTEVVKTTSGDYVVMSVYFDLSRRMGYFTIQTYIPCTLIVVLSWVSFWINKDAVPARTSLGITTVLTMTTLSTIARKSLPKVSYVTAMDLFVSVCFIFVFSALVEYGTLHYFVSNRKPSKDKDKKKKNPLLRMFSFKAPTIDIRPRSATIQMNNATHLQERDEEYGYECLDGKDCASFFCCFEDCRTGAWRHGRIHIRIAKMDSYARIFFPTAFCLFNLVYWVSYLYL
# From the text: as §1, §2, §3, §4, §5
# (§6) Electrophysiology: Patch electrodes were pulled from 1.5 mm O.D., 0.86 mm I.D. borosilicate capillary glass without filament. […] The intracellular solution (IC) comprised of (in mM): 140 Cs-gluconate, 3.0 NaCl, 1.2 MgCl2, 1.0 EGTA, 10 HEPES. pH was adjusted to 7.2 with CsOH. The extracellular (EC) solution used during recordings contained (in mM): 137 NaCl, 5.0 KCl, 1.0 CaCl2), 1.2 MgCl2, 10 HEPES, 10 glucose. pH was adjusted with NaOH to 7.4. After compensating for the liquid junction potential, a steady holding potential of −17 mV was used in all experiments. In physiological conditions the HEK-293 has a resting potential at −40 mV and a low concentration of chloride ions inside the cell. By using the holding potential of-17 mV and the intracellular solution with low chloride ion concentration the chloride ions flux into the cell when the receptors are activated. All experiments were performed at room temperature (21 to 23° C.). The following standard protocol was used for all experiments.
# (§7) GABA applications: By using the Dynaflow equipment it is possible to study transfected HEK-293 during almost physiological conditions.
# [3] = molecular target: T3, human GABAA-receptor subtype α3β3γ2L (Homo sapiens, UniProt P28472+P34903); assay: Patch clamp (Dynaflow) THDOC enhancement of GABA response, HEK-293 cells, α3β3γ2L; type: cell-based; conditions: 1 μM steroid + THDOC
# T3 construct: expressed in transfected cells
# T3 sequence (P34903 29-492): as the sequence (P34903 29-492) above
# T3 sequence (P28472 26-473): as the sequence (P28472 26-473) above
# T3 sequence (P18507 40-475 partner): as the sequence (P18507 40-475 partner) above
# From the text: as §1, §2, §3, §4, §5, §6, §7
# [4] = molecular target: T4, GABAA receptor subtype α1β2γ2 (Homo sapiens, UniProt P14867+P47870); assay: Patch clamp THDOC enhancement of GABA response, α1β2γ2; type: cell-based; conditions: 1 μM steroid + THDOC
# T4 construct: expressed in transfected cells
# T4 sequence (P14867 28-456): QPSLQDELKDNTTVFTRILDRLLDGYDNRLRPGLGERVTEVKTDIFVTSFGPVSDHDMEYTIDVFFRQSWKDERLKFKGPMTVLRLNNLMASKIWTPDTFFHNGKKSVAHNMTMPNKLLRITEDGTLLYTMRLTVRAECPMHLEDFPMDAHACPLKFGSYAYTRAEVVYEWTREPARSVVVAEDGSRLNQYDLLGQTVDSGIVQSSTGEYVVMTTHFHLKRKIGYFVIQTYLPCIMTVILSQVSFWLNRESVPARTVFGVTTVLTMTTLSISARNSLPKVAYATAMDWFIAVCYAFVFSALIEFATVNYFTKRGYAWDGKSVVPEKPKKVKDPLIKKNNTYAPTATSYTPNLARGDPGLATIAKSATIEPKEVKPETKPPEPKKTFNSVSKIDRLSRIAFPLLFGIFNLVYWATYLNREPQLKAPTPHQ
# T4 sequence (P47870 26-474 isoform P47870-1 limits assumed): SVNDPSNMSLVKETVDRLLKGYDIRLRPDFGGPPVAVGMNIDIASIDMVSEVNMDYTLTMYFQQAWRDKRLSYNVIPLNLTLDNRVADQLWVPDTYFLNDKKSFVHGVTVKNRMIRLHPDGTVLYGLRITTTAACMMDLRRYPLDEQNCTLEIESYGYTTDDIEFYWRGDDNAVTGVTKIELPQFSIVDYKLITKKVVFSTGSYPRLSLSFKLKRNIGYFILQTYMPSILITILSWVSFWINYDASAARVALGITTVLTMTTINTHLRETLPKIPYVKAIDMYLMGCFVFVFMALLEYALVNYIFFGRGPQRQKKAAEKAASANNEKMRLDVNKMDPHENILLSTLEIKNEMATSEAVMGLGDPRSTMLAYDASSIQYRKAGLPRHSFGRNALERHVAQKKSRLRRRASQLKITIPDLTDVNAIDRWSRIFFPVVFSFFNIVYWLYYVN
# T4 sequence (P18507 40-475 partner): as the sequence (P18507 40-475 partner) above
# From the text: as §1
# as §2, with “THDOC. […]” for “THDOC.”
# [5] = tested on: Male Wistar rats; assay: Weight increase in growing male rats, experiment 1 (IV injections, 5 days); type: in vivo, rat; conditions: 2 mg/kg IV
# Method: (§8) Animals: Male Wistar rats were kept in group cages, with three animals per cage, from delivery and throughout the period of experiments. The individual animals were marked so that they could be identified throughout the experiment duration. The animals weight an average of 152 g upon arrival. A reversed light dark (12:12h) cycle was used with the dark period onset at 0600 hrs. Altogether fifty-six (56) rats were used in this study (experiment 1+2). The animals were delivered from the breeder Taconic (Denmark). The study protocol was approved by the Regional Ethics Committee of Umeå University, Sweden.
# (§9) Feeding: Standard chow and water were available ad libitum. A reversed 12-h dark-light cycle with lights off at 10.00 am and lights on at 22.00 pm was used. For identification, the rats were marked with a permanent marker on the tail. To avoid the endogenous allopregnanolone fluctuations that are present in the oestrous cycle of female rats, male rats were chosen (Frye et al. 2000). The animals were allowed to acclimatize for at least 3 weeks before start of the experimental sessions. During this period, the rats were repeatedly handled and allowed habituation to the new environment and to all new procedures, to minimize stress during the experiments.
# (§10) After 14 days of triad housing, handling and injection training of the animals, the animals were treated for 5 days with IV injections in experiment 1 and 10 days with a daily subcutaneous injection of the assigned treatment in experiment 2 (Tables 4 and 5). The injections were given at 08.00 every morning. The animals were weighed the day before onset of the treatment and at the last day of injection i.e. on the 5th or 10th day of treatment. Weight was taken at the time of the last injection. […] The results are shown in FIG. 3 (experiment 1) and FIG. 4 (experiment 2), respectively.
# [6] = tested on: Male Wistar rats; assay: Weight increase in growing male rats, experiment 2 (daily subcutaneous injection, 10 days); type: in vivo, rat; conditions: for reduced weight versus the E+P control rats / reduction in weight compared to vehicle: 10 days
# Method: as §8, §9, §10
# [7] = tested on: GABAA receptor; conditions: table 3 in WO 09/142594; cited from earlier work
# [8] = 1 mg/kg s.c. + 5 mg/kg progesterone + 10 μg/kg 17β-estradiol
# [9] = 5 mg/kg s.c. + 5 mg/kg progesterone + 10 μg/kg 17β-estradiol
# T1 sequence (P14867 28-456): as the sequence (P14867 28-456) above
# T1 sequence (P47870 26-474 isoform P47870-1 limits assumed): as the sequence (P47870 26-474 isoform P47870-1 limits assumed) above
# T1 sequence (P18507 40-475 partner): as the sequence (P18507 40-475 partner) above
smiles,measurement,setting,value
C#C[C@]1(O)CC[C@@]2(C)[C@@H](CC[C@@H]3[C@@H]2CC[C@]2(C)C(=O)CC[C@@H]32)C1 [3α-ethynyl-3β-hydroxy-5α-androstan-17-one],"Effect against GABAs agonistic effect, α1β2γ2",[1],−1.9 ± 2.4%
same,"Effect against GABAs agonistic effect, a3β3γ2",[2],"−46 ± 1.3%,"
same,"Antagonism of 100 nM THDOC-enhancement, a3β3γ2",[3],"−166 + 19.9%,"
same,"Antagonism of 100 nM THDOC-enhancement, α1β2γ2",[4],No effect
same,increase in weight versus vehicle treated groups,[5],significantly lower
same,Mean weight increase since arrival. g,"[5]; in 10% β-cyclodextrine 1 ml/kg, first block of Table 6",97.43 g
same,Mean weight increase since arrival. g,[5]; second block of Table 6 (increase from start of treatment),11.86 g
same,reduced weight versus the E+P control rats,[6]; [8],-23.9 ± 4.4 g
same,reduction in weight compared to vehicle,[6]; [8],-33 ± 4.4 g
same,reduced weight versus the E+P control rats,[6]; [9],-20.4 ± 5.2 g
same,reduction in weight compared to vehicle,[6]; [9],-29.6 ± 5.2 g
same,weight difference after 10 days of treatment compared to vehicle,[6]; 10 days s.c. treatment,over 20%
same,effect as a GAMSA or GAMS,[7],no effect as a GAMSA or GAMS

# Source: US20250387409A1, “3-BETA-HYDROXY-3-ALPHA-ETHYL STEROIDS FOR MODULATION OF THE ALPHA-3 SUBTYPE OF THE GABAA RECEPTOR” (priority 2021, published 2025)
